Experimental data as given in patent publication US6716878B1, “Antimicrobial agents” (Vernalis (Oxford) Limited, priority 1999, dated 2004).
In brackets after ≈: the same amount, converted by molar mass.

What was measured:
[1] = system: E. coli strain DH5α; test: Minimal inhibitory concentration (MIC) against E. coli, two fold serial dilutions in 2xYT broth; format: cell-based; details: Escherichia coli; E. coli strain DH5α; 2xYT broth, 37° C., 18 hours; lowest drug concentration that inhibited visible growth; read-out: MIC (E. coli)
Method: (§1) Where MIC values are quoted for the compounds of the examples, those results were obtained by the method described in the Biological Example.
(§2) Minimal inhibitory concentrations (MIC) of inhibitors against E. coli strain DH5α (Genotype; F-φ80d/acZΔM 15Δ(lacZYA-argF)U 169 deoR recA1 endA1 hsdR17(rk^−, mk^+)phoA supE44λ^−thi-1 gyrA96 re/A1) obtained from GibcoBRL Life Technologies, or Staphylococcus capitis (American Type Culture Collection number 35661) were determined as follows. Stock solutions of each test compound were prepared by dissolution of the compound in dimethylsulfoxide at 10 mM. For the determination of the minimal inhibitory concentration, two fold serial dilutions were prepared in 2×YT broth (typtone 16 g/l, yeast extract 10 g/l, sodium chloride 5 g/l obtained from BIO 101 Inc, 1070 Joshua Way, Vista, Calif. 92083, USA) to yield 0.05 ml compound-containing medium per well. Inocula were prepared from cultures grown overnight in 2×YT broth at 37° C. Cell densities were adjusted to absorbance at 660 nm (a660)=0.1; the optical density-standardised preparations were diluted 1:1000 in 2×YT broth; and each well inoculated with 0.05 ml of the diluted bacteria. Microtiter plates were incubated at 37° C. for 18 hours in a humidified incubator. The MIC (μM) was recorded as the lowest drug concentration that inhibited visible growth.

[2] = system: Staphylococcus capitis (American Type Culture Collection number 35661); test: Minimal inhibitory concentration (MIC) against Staphylococcus capitis, two fold serial dilutions in 2xYT broth; format: cell-based; details: ATCC35661, Staphylococcus capitis ATCC 35661, 37° C., 18 hours, lowest drug concentration that inhibited visible growth, read-out: MIC (S. capitis)
Method: as §1, §2

MIC [1]: 12.5 µM (≈ 5.24 µg/mL) | MIC [2]: 3.1 µM (≈ 1.3 µg/mL)
Compound: CCCC[C@H](CN(O)C=O)C(=O)N[C@H](C(=O)c1ccc(NCCC)cc1)C(C)(C)C [Example 31, 2(R)-[(N-Formyl-N-hydroxyamino)-methyl]-hexanoic Acid-(2′,2′-dimethyl-1′(S)-(4-propylaminobenzoyl)-propyl)amide]
